Here are results for 11 molecules from ChEMBL document CHEMBL1201862, “PubChem BioAssay data set” (2004).

Some test systems named below: SK-OV-3; HCC 2998; SN12C; OVCAR-5; SW-620; OVCAR-8; 786-0; MOLT-4; SF-295; HCT-15; MCF7; MDA-MB-435; BT-549; TK-10; LOX IMVI; U-251; M14; NCI-H226; UACC-62; HOP-92.
Common to all, as to experiment: DTP human tumour cell line panel, 48 h

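Five compound concentrations were applied to cells in 96-well plates for 48 hours; endpoints were derived by simple linear interpolation of the resulting dose-response curve. GI50 marks 50% less growth.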 Activity calls are given as the source filed them. No stated cut-off is given here; in the data, active = GI50 up to about 1.1 µM and inactive = higher.

As usually defined, the GI50 is the concentration at which growth is held to half of that of the control.

With `CN1CCC(O)(C(C)(C)C)CC1`, the GI50 in the assay on SK-OV-3, in the assay with HCC 2998, with SN12C, with OVCAR-5, with SW-620 and in the assay on OVCAR-8 was > 100 µM (inactive) each time. The GI50 in the assay on 786-0 is > 100 µM (inactive); in the assay with MOLT-4 it was > 100 µM (inactive); with SF-295, > 100 µM (inactive); in the assay on HCT-15, greater than 100 µM; with MCF7 it was > 100 µM (inactive); with MDA-MB-435 it was > 100 µM (inactive). Also, the GI50 in the assay with BT-549, with TK-10, in the assay with LOX IMVI, in the assay on U-251, with M14 and with NCI-H226 was > 100 µM (inactive) each time. For the same molecule, the GI50 with UACC-62 is > 100 µM (inactive).

In the case of `Cc1cccc(/N=N/c2ccc(/N=N/c3c(O)ccc4ccccc34)cc2C)c1`, the GI50 in the assay with SK-OV-3 is 28.4 µM (inactive); with HCC 2998 it was > 100 µM (inactive); in the assay with OVCAR-5, > 100 µM (inactive); with SW-620 it was > 100 µM (inactive); in the assay on OVCAR-8, 7.05 µM (inactive); in the assay on 786-0, 83.6 µM (inactive). The GI50 with MOLT-4 was > 100 µM (inactive); with SF-295, 44.2 µM (inactive); in the assay with HOP-92, 32.2 µM (inactive); with HCT-15, greater than 100 µM; with MCF7, > 100 µM (inactive); in the assay on MDA-MB-435 it was > 100 µM (inactive). For the same molecule, the GI50 in the assay with BT-549 was > 100 µM (inactive); in the assay on TK-10 it was > 100 µM (inactive); in the assay with U-251, 54.2 µM (inactive); in the assay with M14 it was 41.7 µM (inactive); in the assay with NCI-H226, > 100 µM (inactive); in the assay on UACC-62, 72.4 µM (inactive).

As to `CC(C)C(OC(=O)c1ccc(NCc2cc(O)ccc2O)cc1)C(C)C`, the GI50 with HCC 2998 is 2.96 µM (inactive); with SN12C, 2.42 µM (inactive); in the assay on OVCAR-5, 2.09 µM (inactive); in the assay with SW-620 it was 1.96 µM (inactive); in the assay on OVCAR-8 it was 1.4 µM (inactive); with 786-0, 1.14 µM (inactive). Besides, the concentration for 50% growth inhibition (GI50) with MOLT-4 was 0.243 µM (active); with SF-295 it was 3.74 µM (inactive); with HOP-92, 0.424 µM (active); in the assay on HCT-15, 0.317 µM; with MCF7 it was 2.87 µM (inactive); in the assay with MDA-MB-435, 1.29 µM (inactive). Also, the GI50 with BT-549 is 0.547 µM (active); with TK-10, 1.66 µM (inactive); in the assay on LOX IMVI, 0.776 µM (active); in the assay on U-251, 1.14 µM (inactive); in the assay with M14 it was 2.28 µM (inactive); in the assay on NCI-H226, 1.29 µM (inactive). Besides, the GI50 with UACC-62 was 1.29 µM (inactive).

Regarding `C/C=C\C(CC(=O)NCCc1cn(C(=O)OCc2ccccc2)c2ccccc12)CC(=O)OC` (stereo not given), the GI50 in the assay with SK-OV-3, in the assay with HCC 2998, with OVCAR-5, in the assay with SW-620, with OVCAR-8 and with 786-0 was > 100 µM (inactive) in each case. Besides, the GI50 in the assay with MOLT-4 was 48 µM (inactive); in the assay with SF-295 it was 57 µM (inactive); with HOP-92 it was 69 µM (inactive); with HCT-15, greater than 100 µM; with MCF7 it was 46.6 µM (inactive); in the assay with MDA-MB-435, 42.3 µM (inactive). The GI50 in the assay with BT-549 was 60 µM (inactive); in the assay on TK-10 it was > 100 µM (inactive); with U-251, > 100 µM (inactive); with M14 it was 86.7 µM (inactive); in the assay with UACC-62 it was 90.4 µM (inactive).

For the molecule `C#CCn1c(=O)c(Cl)cn(/C(=C/C(=O)OCC)C(=O)OCC)c1=O`, the GI50 is 31.6 µM (inactive) in the assay with SK-OV-3; 22.4 µM (inactive) with SN12C; 16.9 µM (inactive) in the assay with OVCAR-5; 2.22 µM (inactive) in the assay on SW-620; 5.48 µM (inactive) with OVCAR-8; 1.98 µM (inactive) in the assay on 786-0. In addition, the GI50 with MOLT-4 is 2.28 µM (inactive); with SF-295, > 47.5 µM (inactive); with HOP-92 it was 9.77 µM (inactive); in the assay with HCT-15 it was 6.79 µM; in the assay on MCF7, 8.45 µM (inactive); in the assay on MDA-MB-435 it was 18 µM (inactive). For the same molecule, the GI50 with BT-549 is 18.5 µM (inactive); in the assay with TK-10, 2.43 µM (inactive); in the assay with LOX IMVI, 8.32 µM (inactive); in the assay on U-251 it was 17.7 µM (inactive); with M14, 6.98 µM (inactive); in the assay with NCI-H226, > 43.1 µM (inactive). Also, the GI50 in the assay with UACC-62 is 15.8 µM (inactive).

With `FC(F)(F)c1cc(Cl)cnc1N/N=C(/c1ccccc1)c1ccccn1`, the GI50 in the assay with SK-OV-3 is 2.49 µM (inactive); with HCC 2998, 8 µM (inactive); in the assay with SN12C, 5.36 µM (inactive); with OVCAR-5, 2 µM (inactive); with SW-620, 3.85 µM (inactive); in the assay with OVCAR-8, 1.8 µM (inactive). For the same molecule, the GI50 in the assay with 786-0 was 2.84 µM (inactive); in the assay with MOLT-4, 1.31 µM (inactive); in the assay with SF-295, 2.16 µM (inactive); in the assay with HOP-92, 1.81 µM (inactive); in the assay with HCT-15, 0.74 µM; with MCF7, 3.13 µM (inactive). For the same molecule, the GI50 is 4.85 µM (inactive) with MDA-MB-435; 6.93 µM (inactive) with BT-549; 3.62 µM (inactive) in the assay with U-251; 0.719 µM (active) in the assay with M14; 1.57 µM (inactive) in the assay with NCI-H226; 3.27 µM (inactive) in the assay on UACC-62.

`C=CC[C@H](O)[C@@](NC(=O)OCc1ccccc1)(Sc1ccc(C)cc1)C(F)(F)F`: the GI50 with HCC 2998 was > 100 µM (inactive); in the assay with SN12C, 17.3 µM (inactive); in the assay on OVCAR-5 it was 28.3 µM (inactive); in the assay with SW-620 it was 32.1 µM (inactive); with OVCAR-8, 16.9 µM (inactive); with 786-0, 16.9 µM (inactive). For the same molecule, the GI50 in the assay with MOLT-4 is 20.3 µM (inactive); with SF-295, 21.9 µM (inactive); in the assay on HOP-92, 38.6 µM (inactive); in the assay on HCT-15 it was 24.9 µM; in the assay with MCF7, 23.5 µM (inactive); with MDA-MB-435, 24.1 µM (inactive). Further, the GI50 in the assay with BT-549 is 10.9 µM (inactive); in the assay on TK-10 it was 33.8 µM (inactive); in the assay with LOX IMVI, 4.44 µM (inactive); in the assay on U-251 it was 14.5 µM (inactive); in the assay with M14 it was 20.7 µM (inactive); in the assay on NCI-H226 it was 16.5 µM (inactive). The GI50 in the assay on UACC-62 is 30.7 µM (inactive).

Consider `O=c1[nH]c2c(c(=O)[nH]1)SC(c1ccccc1)C2` (stereo not given), for which the GI50 in the assay with HCC 2998, in the assay on OVCAR-5, in the assay on SW-620, with OVCAR-8, in the assay with 786-0 and with MOLT-4 was > 100 µM (inactive) in each case. The GI50 is > 100 µM (inactive) with SF-295; > 100 µM (inactive) in the assay on HOP-92; greater than 100 µM in the assay with HCT-15; 94 µM (inactive) in the assay on MCF7; > 100 µM (inactive) with MDA-MB-435; > 100 µM (inactive) in the assay with BT-549. Besides, the GI50 in the assay with LOX IMVI, with U-251, with M14 and with NCI-H226 was > 100 µM (inactive) each time.

With `CC(=O)Nc1ccc(Nc2cc(O)nc(O)n2)cc1`, the GI50 in the assay on HCC 2998, with SN12C, in the assay with OVCAR-5, with SW-620, in the assay on OVCAR-8 and in the assay with 786-0 was > 100 µM (inactive) each time. In addition, the GI50 is 18.2 µM (inactive) with MOLT-4; > 100 µM (inactive) with SF-295; > 100 µM (inactive) with HOP-92; greater than 100 µM in the assay with HCT-15; > 100 µM (inactive) with MCF7; > 100 µM (inactive) with MDA-MB-435. Besides, the GI50 with BT-549, in the assay with TK-10, with LOX IMVI, in the assay with U-251, in the assay with M14 and in the assay on NCI-H226 was > 100 µM (inactive) each time.

Consider `O=C(O)c1ccc(/N=C(\C(=N\c2ccc(C(=O)O)cc2)c2ccccc2)c2ccccc2)cc1`, for which the GI50 with SK-OV-3, with HCC 2998, in the assay with SN12C, in the assay on OVCAR-5, in the assay with SW-620 and with OVCAR-8 was > 100 µM (inactive) throughout. Further, the GI50 was > 100 µM (inactive) in the assay with 786-0; > 100 µM (inactive) in the assay on MOLT-4; > 100 µM (inactive) in the assay on SF-295; greater than 100 µM with HCT-15; > 100 µM (inactive) in the assay on MCF7; > 100 µM (inactive) in the assay on MDA-MB-435. For the same molecule, the GI50 in the assay on BT-549 is 33.5 µM (inactive); in the assay on TK-10, > 100 µM (inactive); with LOX IMVI, > 100 µM (inactive); in the assay on U-251 it was > 100 µM (inactive); in the assay with M14, > 100 µM (inactive); with NCI-H226, > 100 µM (inactive). Besides, the GI50 in the assay on UACC-62 was > 100 µM (inactive).

For the molecule `CO/N=C(/C(=O)OC)c1ccccc1COc1ccccc1C(F)(F)F`, the GI50 in the assay on SK-OV-3 was 16.6 µM (inactive); in the assay with HCC 2998, 27.9 µM (inactive); in the assay with SN12C, 61.8 µM (inactive); in the assay on OVCAR-5 it was > 100 µM (inactive); in the assay on OVCAR-8, > 100 µM (inactive); in the assay with 786-0, 43.6 µM (inactive). The GI50 with MOLT-4 was 15.1 µM (inactive); in the assay on SF-295, 10.7 µM (inactive); in the assay on HOP-92 it was 30.2 µM (inactive); in the assay with HCT-15, 33.3 µM; with MCF7, 39.4 µM (inactive); in the assay on MDA-MB-435, 24.4 µM (inactive). Further, the GI50 was 79.1 µM (inactive) with BT-549; 54.5 µM (inactive) in the assay on TK-10; 31.6 µM (inactive) in the assay on U-251; 26.9 µM (inactive) in the assay on M14; 68.4 µM (inactive) with NCI-H226; 26.3 µM (inactive) in the assay on UACC-62.
